“And” between values parts separate entries of the source, which are not always exact repeats. Equal entries are not always repeated.
System: Leishmania donovani
Assay: Leishmania intramacrophage assay
Format: functional, organism-based
Details: for IC50: Leishmania donovani

Row | IC50 | pIC50 | SMILES
1 | > 50.1 µM |  | COCc1nc(CNc2cccc(-c3ncon3)c2)cs1
2 | 46.2 µM |  | Cc1sc2nc(C(F)(F)F)nc(N3CCCN(C)CC3)c2c1C
3 | > 50.1 µM |  | Cc1nc(NCc2nncn2C2CC2)c2c(CC(C)C)csc2n1
4 | > 50.1 µM | 4.305 | CCc1nc2c(N3CCC4(CC3)CC(=O)N(CC(C)C)C4)ncnc2o1
5 | > 50.1 µM |  | Cc1ccccc1C1(CNc2nnc(C)c(C)c2C#N)CCOCC1
6 | > 50.1 µM |  | Cc1nnc(NCC2(c3ccccc3)CCC2)c(C#N)c1C
7 | > 50.1 µM |  | O=C1NCCCC12CCN(c1nc3c(c(C(F)(F)F)n1)CCCC3)C2 (centres undefined)
8 | > 50.1 µM |  | CCC(=O)N1CCC(c2ncc3c(n2)CCNC3)CC1
9 | > 50.1 µM |  | CN(C)C(=O)C1CCN(c2cncc(-n3cccn3)n2)CC1
10 | 15 µM | 4.798 | Cl.NCC(=O)N1CCC(c2ccnc(Nc3cc(C(F)(F)F)ccn3)n2)C1 (centres undefined)
11 | > 50.1 µM |  | Cn1cc(CN2CCC(F)(F)C3(CCN(c4cccc(F)c4)C3)C2)cn1 (centres undefined)
12 | > 50.1 µM |  | CC1CCCN(Cc2ccnc(-c3cccnc3)n2)C1 (centres undefined)
13 | > 50.1 µM |  | c1ccc(COC2CCN(c3cncc(-n4cccn4)n3)CC2)cc1
14 | > 50.1 µM |  | CCc1nnc(CN2CCN(c3cccc(OC)c3)C(=O)C2)o1
15 | > 50.1 µM |  | N#Cc1ccc(CNC(=O)C2=NN(c3ccccc3)C(=O)CN2)cc1
16 | > 50.1 µM |  | NC(=O)C1CCN(Cc2csc(-c3ncccn3)n2)CC1
17 | > 50.1 µM |  | Cc1nc(N(Cc2ccncc2)CC2CCCO2)c2ccsc2n1 (centres undefined)
18 | > 50.1 µM |  | CC(C)CC(=O)N1CCN(Cc2csc(-c3ncccn3)n2)CC1
19 | > 50.1 µM |  | CCOc1ccc(CNCCCn2ccnc2)cc1OC
20 | > 50.1 µM |  | O=C(c1c[nH]cn1)N1CCC(F)(F)C2(CCN(c3ncccn3)C2)C1 (centres undefined)

Row | IC50 | pIC50 | SMILES
21 | > 50.1 µM |  | CN1CCN(C2COC3(CCN(Cc4ccc(F)cc4)CC3)C2)CC1 (centres undefined)
22 | > 50.1 µM |  | CCCC1CCCN(Cc2csc(-c3cnn(C)c3)n2)CC1 (centres undefined)
23 | > 50.1 µM |  | O=C(c1c[nH]cn1)N1CCC(F)(F)C2(CCN(c3ccccn3)C2)C1 (centres undefined)
24 | > 50.1 µM |  | O=C(NCc1cccnc1)C1=NN(c2ccccc2)C(=O)CN1
25 | > 50.1 µM |  | Cc1ccc(-c2ncc(CNc3cnccc3CO)s2)cc1
26 | > 50.1 µM |  | Cc1ccc(CN2CCC(F)(F)C3(CCN(c4cnccn4)C3)C2)o1 (centres undefined)
27 | > 50.1 µM |  | Cn1nnc2c(sc3nc(N4CCOCC4)c4c(c32)CCC4)c1=O
28 | > 50.1 µM |  | COCCN(Cc1sccc1C)c1nc(C)nc2sccc12
29 | > 50.1 µM |  | COc1ccc(OCc2sc(C3(O)CCCNCC3)nc2C)cc1 (centres undefined)
30 | > 50.1 µM |  | Cc1ccc(N2CCCC(NCc3cscn3)C2)nn1 (centres undefined)
31 | > 50.1 µM |  | c1cnc(-c2nc(CN3CCC(c4ccn[nH]4)CC3)cs2)nc1
32 | > 50.1 µM |  | CN(C)C1COC2(CCN(Cc3ccncc3)CC2)C1 (centres undefined)
33 | > 50.1 µM |  | FC1(F)CCN(Cc2ccccn2)CC12CCN(c1cnccn1)C2 (centres undefined)
34 | > 50.1 µM |  | Cn1cc(CN2CCC(F)(F)C3(CCN(c4ccccn4)C3)C2)cn1 (centres undefined)
35 | > 50.1 µM |  | COC(=O)c1sc2nc3c(c(C(F)(F)F)c2c1N)CN(C(C)=O)CC3
36 | > 50.1 µM |  | COc1ccc(OCCc2sc(C3(O)CCCNCC3)nc2C)cc1 (centres undefined)
37 | > 50.1 µM |  | O=C(O)C1CCCN1c1nc(-c2ccc(Cl)cc2)cc(C(F)(F)F)n1 (centres undefined)
38 | > 50.1 µM |  | CCN1CC(C(=O)NCc2ccc3c(c2)nc(C)n3C)CCC1=O (centres undefined)
39 | > 50.1 µM |  | O=C(CCc1cscn1)N1CCCC(n2ccnc2)C1 (centres undefined)
40 | > 50.1 µM |  | CN(c1ncnc2sccc12)C1CCCN(c2cccnn2)C1 (centres undefined)

Second part, the compound before the results:

Row | SMILES | IC50 | pIC50
41 | Fc1ccc(CN2CCC(F)(F)C3(CCN(c4cnccn4)C3)C2)cc1 (centres undefined) | > 50.1 µM | 
42 | Cc1cnn(-c2cccc(N3CCCC3)n2)c1 | > 50.1 µM | 
43 | O=c1[nH]cccc1-c1nccc(C2(c3ccccc3Cl)CCNCC2)n1 | > 50.1 µM | 
44 | CN(Cc1ccncc1)C1COC2(CCN(Cc3ccccn3)CC2)C1 (centres undefined) | > 50.1 µM | 
45 | CNC(=O)[C@@H]1C[C@H]2CN(Cc3ccco3)C[C@H]2N1C | > 50.1 µM | 
46 | COc1ccc(C)cc1CNC(=O)C1=NN(c2ccccc2)C(=O)CN1 | > 50.1 µM | 
47 | O=C(c1cc[nH]n1)N1CCC(F)(F)C2(CCN(c3ccccn3)C2)C1 (centres undefined) | > 50.1 µM | 
48 | CCc1cc(N2CCCNCC2)n2nc(C)c(C)c2n1 | > 50.1 µM | 
49 | c1cnc(-c2nc(CN3CCCC(N4CCCC4)C3)cs2)nc1 (centres undefined) | > 50.1 µM | 
50 | Cc1cc(CN2CCCC(Cn3cncn3)C2)on1 (centres undefined) | > 50.1 µM | 
51 | FC(F)(F)c1nc(NC2CCCC2)c2ccccc2n1 | > 50.1 µM | 
52 | CC(C)C[C@H](N)COc1cccc(F)c1Oc1ccccc1 | 12.5 µM | 4.696
53 | c1nc(CCNc2nc(C3CC3)nc3c2CCNCC3)c[nH]1 | > 50.1 µM | 
54 | COc1ccc(Cl)cc1CNCCCn1ccnc1 | > 50.1 µM | 
55 | Cc1nnc(NCC2(c3ccc(Cl)cc3Cl)CCOCC2)c(C#N)c1C | > 50.1 µM | 
56 | Cc1nccn1CCCn1cncc1-c1ccc2c(c1)CCCN2C | > 50.1 µM | 
57 | CN1CCCC(Cc2cncc(Br)c2)CC1 (centres undefined) | > 50.1 µM | 
58 | CCOc1ccc(-c2c(-c3ccccc3)ncn2C2CCNC2)cn1 (centres undefined) | > 50.1 µM | 4.374
59 | Cc1sc2nc(C(F)(F)F)nc(N3CCC(NS(C)(=O)=O)CC3)c2c1C | > 50.1 µM | 
60 | COCCN1CCN(c2ccc3ccc(C(=O)NC4CC4)cn23)CC1 | > 50.1 µM | 
61 | O=C(CCC1CCCC1)N1CCC(c2ncc3c(n2)CCNC3)CC1 | > 50.1 µM | 

Row | SMILES | IC50 | pIC50
62 | CC(=O)NCc1nnc2n1CCN(c1nc(C)nc3sccc13)CC2 | > 50.1 µM | 
63 | Cc1nnc(NCC2(c3ccccc3)CC2)c(C#N)c1C | > 50.1 µM | 
64 | COc1ccc(C(NCc2cccc(C#N)c2)C2CC2)cc1 (centres undefined) | > 50.1 µM | 
65 | Cc1nn(C)cc1-c1cc(C(F)(F)F)nc(NC2CCN(C)CC2)n1 | > 50.1 µM | 
66 | O=C(NCCCN1CCOCC1)c1ccc(-n2ccc3ccccc32)s1 | 15.8 µM | 
67 | CN1CCN(C2COC3(CCN(Cc4ccsc4)CC3)C2)CC1 (centres undefined) | > 50.1 µM | 
68 | CCCn1nnc2c(sc3nc(N4CCOCC4)c4c(c32)CCC4)c1=O | > 50.1 µM | 
69 | Cc1cc(C(F)(F)F)nc(N2CCN(Cc3nccn3C)CC2)n1 | > 50.1 µM | 
70 | CCOc1c(CNCCCn2ccnc2)cc(Cl)cc1OC | 27.5 µM | 
71 | Cc1cc(C(F)(F)F)nc(CCNc2nc(C)nc3sccc23)n1 | > 50.1 µM | 
72 | CC(C)n1ccnc1C1CCCN(c2ccccn2)C1 (centres undefined) | > 50.1 µM | 
73 | Cc1nc2c(c(NCC(O)c3ccccc3Cl)n1)CCNCC2 (centres undefined) | 44.8 µM | 4.337
74 | Cc1ccc(N2CCCC(N(C)c3ncnc4c3CCC4)C2)nn1 (centres undefined) | > 50.1 µM | 
75 | CC(C)C[C@H](N)C(=O)N1CC2(CCNCC2)c2cc(Cl)ccc21.Cl.Cl |  | 4.898 and 5.256
76 | CN1CCN(c2ccc3ccc(C(=O)N4CCCCO4)cn23)CC1 | > 50.1 µM | 
77 | COc1cccc(C(=O)NCc2ccccc2S(=O)(=O)N(C)C)c1 | > 50.1 µM | 
78 | CC(=O)N1CCN(c2nc(C(F)(F)F)nc3sc(C)c(C)c23)CC1 | > 50.1 µM | 
79 | CCc1ccc(-c2ncc3c(n2)N(C)CCN(CCN(C)C)C3=O)cc1 | 10.3 µM | 4.813
80 | NCC1CN(c2nc(-c3ccccc3)nc3c2CCNCC3)CCO1 (centres undefined) | > 50.1 µM | 
81 | CC(=O)N1CCCN(Cc2csc(-c3ncccn3)n2)CC1 | > 50.1 µM | 
82 | CCOc1ccc(Cl)cc1CNCCCn1ccnc1 | 38.5 µM | 

Row | SMILES | IC50 | pIC50
83 | CCNC(=O)c1ccc2ccc(N(CC)CC)n2c1 | > 50.1 µM | 
84 | Cc1cc(=O)n2nc(Oc3ccc(Cl)c(C)c3)sc2n1 | > 50.1 µM | 4.378
85 | CCC(=O)N1CCC2(C=C(C(=O)N(C)C)c3ccccc32)CC1 | > 50.1 µM | 
86 | Cc1c(-c2cc(C(F)F)nc3sc(C(N)=O)c(N)c23)cnn1C | > 50.1 µM | 
87 | Cn1nccc1C1CCN(Cc2csc(-c3ncccn3)n2)CC1 | > 50.1 µM | 
88 | Cc1nc(C2(O)CCCNCC2)sc1CCOc1ccccc1Cl.Cl (centres undefined) | 12.5 µM | 5.014
89 | CCOc1ccc(CNCC(O)c2ccccc2)cc1Cl (centres undefined) | 29.6 µM | 
90 | CCCc1nc(CN2CCCC2Cn2cncn2)cs1 (centres undefined) | > 50.1 µM | 
91 | Cc1sc2nc(CCN)nc(N3CCC(N4CCCC4)CC3)c2c1C | > 50.1 µM | 
92 | Cn1ccnc1CN1CCC(F)(F)C2(CCN(c3cnccn3)C2)C1 (centres undefined) | > 50.1 µM | 
93 | CCC1CCCN(Cc2nc(N)c3ccccc3n2)C1 (centres undefined) | > 50.1 µM | 
94 | CCOc1ccc(CNCCCn2ccnc2)cc1Cl | 12.6 µM | 
95 | CC1CCCN(Cc2coc(-c3cccc(F)c3)n2)C1 (centres undefined) | > 50.1 µM | 
96 | c1cnc(-c2nc(CN3CCCN(Cc4cccs4)CC3)cs2)nc1 | > 50.1 µM | 
97 | CNC(=O)c1sccc1N(C)S(=O)(=O)c1ccc(Cl)cc1 | > 50.1 µM | 
98 | Cc1csc(C2(NCC(O)COc3ccc(F)cc3)CCC2)n1 (centres undefined) | > 50.1 µM | 
99 | N#Cc1cccc(CNC(=O)C2=NN(c3ccccc3)C(=O)CN2)c1 | > 50.1 µM | 
100 | Cc1ccc(-c2ncc(CNc3cnccc3CO)s2)o1 | > 50.1 µM | 
101 | CN(C)CCNC(=O)c1ccc2ccc(N(C)CC3CC3)n2c1 | > 50.1 µM | 
102 | Cn1ncc2c(N3CCCC4(CCNC4)C3)nc(C(C)(C)C)nc21 (centres undefined) |  | 4.611 and 4.922
103 | FC1(F)CCN(Cc2cccnc2)CC12CCN(c1cnccn1)C2 (centres undefined) | > 50.1 µM | 

Row | SMILES | IC50 | pIC50
104 | Cc1ccc(CN2Cc3c(cnn3C)C(COCC3CC3)C2)s1 (centres undefined) |  | 5.151 and 4.71
105 | CN(c1ncnc2c1cnn2C)C1CCCN(c2cccnn2)C1 (centres undefined) | > 50.1 µM | 
106 | CS(=O)(=O)N1CCN(Cc2csc(-c3ncccn3)n2)CC1 | > 50.1 µM | 
107 | Cc1ncc(CNc2cnccc2CO)s1 | > 50.1 µM | 
108 | CCCC1CCCN(Cc2csc(-c3ncccn3)n2)CC1 (centres undefined) | 18.4 µM | 4.896
109 | FC(F)(F)c1cc(-c2cccs2)nc(N2CCN3CCCC3C2)n1 (centres undefined) | > 50.1 µM | 
110 | Cc1sc2nc(CCN)nc(N3CCS(=O)(=O)CC3)c2c1C | > 50.1 µM | 
111 | CC(NC(=O)Cn1ccnc1)c1ccc(OCC2CC2)c(F)c1 (centres undefined) | > 50.1 µM | 
112 | CCN(CC)c1ccc2ccc(C(=O)NC3CC3)cn12 | > 50.1 µM | 
113 | N#CC1CCCN(c2nc(-c3ccccc3)nc3c2CCNCC3)C1 (centres undefined) | 20.6 µM | 4.667
114 | CCCC(=O)N1CCC(c2ncc3c(n2)CCNC3)CC1 | > 50.1 µM | 
115 | COc1ccc(C(NCc2ccc(C#N)cc2)C2CC2)cc1 (centres undefined) | > 50.1 µM | 
116 | CCN1CCCC(O)(c2nc(C)c(CCOc3ccc(F)cc3)s2)CC1 (centres undefined) | > 50.1 µM | 
117 | C=C(C)CN1CCC(C(=O)c2cc(F)ccc2F)CC1 | > 50.1 µM | 
118 | CN1CCN(CC(NCc2ccc(F)cc2)c2ccccc2)CC1 (centres undefined) | 13.6 µM | 
119 | Cc1nccn1CC1CCCN(C(=O)Cc2ccsc2)C1 (centres undefined) | > 50.1 µM | 
120 | COCCNC(=O)c1ccc2ccc(N(C)CC3CC3)n2c1 | > 50.1 µM | 
121 | O=C(NCc1ccccn1)C1=NN(c2ccccc2)C(=O)CN1 | > 50.1 µM | 
122 | Cc1nn(C)cc1-c1cc(C(F)(F)F)nc(NC2CCCCC2)n1 | > 50.1 µM | 
123 | CCOc1ccc(CNCCCn2ccnc2)cc1Br | 14.4 µM | 4.774
